Assay results as given in PMC3072462 (Journal of medicinal chemistry, 2011).
Where “and” joins values, the source holds several entries; their conditions need not be identical. Identical values can stand only once. Like-named read-outs stand apart in the source and are kept apart here.

Assays:
HIV-1NL4-3 strain K103N = experiment: Antiviral assay with NNRTI-resistant strain in MAGI R5 cells; assay type: cell-based; details: HIV-1NL4-3 K103N (NNRTI resistance)
HIV-1NL4-3 strain Y181C = experiment: as above; assay type: cell-based; details: HIV-1NL4-3 Y181C (NNRTI resistance)
[1] = target: T1, recombinant HIV-1 IN (3′P) (Human immunodeficiency virus type 1 group M subtype B, UniProt P04585); experiment: In vitro integrase catalytic gel assay, 3′ processing; assay type: biochemical
[2] = Compound cytotoxicity / cell viability in CEM-SS cells; assay type: cell-based; details: human
HIV-1IIIB [3] = experiment: HIV cytoprotection; details: for TI (therapeutic index, CC50/EC50): HIV-1IIIB in CEM-SS cells; for activity against HIV-1 (in words): 10 μM, CEM-SS cells
[4] = target: T2, recombinant HIV-1 IN (ST) (Human immunodeficiency virus type 1 group M subtype B, UniProt P04585); experiment: In vitro integrase catalytic gel assay, strand transfer; assay type: biochemical
[5] = target: T1, recombinant HIV-1 IN (3′P); details: read-out: IN IC50 3′P, gel assay; cited from earlier work
HIV-1IIIB [6] = details: HIV-1IIIB in CEM-SS cells, cited from earlier work
CEM-SS cells = details: single concentration 10 μM; cited from earlier work
HIV IN mutant Y143R [7] = details: values from two independent experiments; cited from earlier work
[8] = test system: raltegravir-resistant HIV-1 strain 1556-1 (Y143C); details: virus 1556-1, Y143C; NL4-3 based, MT-4 cells; cited from earlier work
[9] = target: T2, recombinant HIV-1 IN (ST); details: cited from earlier work
MT-4 cells = assay type: cell-based; details: human
HIV IN mutant Y143R [10] = details: values from two independent experiments

`CC(C)c1c(Cc2ccccc2)n(COCc2ccccc2)c(=O)[nH]c1=O` [TNK-651] gave a fold-resistance (HIV-1NL4-3 strain K103N) of 22 and a fold-resistance (HIV-1NL4-3 strain Y181C) of 72.

`CC(C)c1c(Cc2ccccc2)n(CCc2ccc(F)cc2)c(=O)n(O)c1=O` [Compound 42, 6-Benzyl-1-(4-fluorophenethyl)-3-hydroxy-5-isopropylpyrimidine-2,4(1H,3H)-dione] gave an IC50 [1] greater than 111 µM.

`CCc1c(Cc2ccccc2)c(=O)n(O)c(=O)n1COCc1ccc(F)cc1` [Compound 56, 5-Benzyl-6-ethyl-1-((4-fluorobenzyloxy)methyl)-3-hydroxypyrimidine-2,4(1H,3H)-dione] showed an IC50 [1] greater than 111 µM.

With `CCc1c(Cc2ccccc2)n(COCc2ccccc2)c(=O)n(O)c1=O` [Compound 53, 6-Benzyl-1-(benzyloxymethyl)-5-ethyl-3-hydroxypyrimidine-2,4(1H,3H)-dione] the IC50 [1] was greater than 111 µM.

For `CC(C)c1c(Cc2ccccc2)n(COCc2ccc(F)cc2F)c(=O)n(O)c1=O` [Compound 12, 6-Benzyl-1-((2,4-difluorobenzyloxy)methyl)-3-hydroxy-5-isopropylpyrimidine-2,4(1H,3H)-dione], the IC50 [1] was greater than 111 µM, the viability at 6 days, 10 µM [2] was 100% and the “TI (therapeutic index, CC50/EC50)” value (HIV-1IIIB [3]) was greater than 47.

For `CC(C)c1c(Cc2ccccc2)n(COCCc2ccc(F)cc2)c(=O)n(O)c1=O` [Compound 28, 6-Benzyl-1-((4-fluorophenethoxy)methyl)-3-hydroxy-5-isopropylpyrimidine-2,4(1H,3H)-dione], the IC50 [1] was greater than 111 µM.

`CC(C)c1c(Cc2ccc(F)cc2)n(Cc2ccccc2)c(=O)n(O)c1=O` [Compound 64, 1-Benzyl-6-(4-fluorobenzyl)-3-hydroxy-5-isopropylpyrimidine-2,4(1H,3H)-dione] showed an IC50 [1] greater than 111 µM.

`CCc1c(Cc2ccccc2)c(=O)[nH]c(=O)n1COCc1ccccc1` [Compound 49, 5-Benzyl-1-(benzyloxymethyl)-6-ethylpyrimidine-2,4(1H,3H)-dione] showed a viability at 6 days, 10 µM [2] of 100%.

In the case of `CC(C)c1c(Cc2ccccc2)n(COCc2ccc(F)cc2)c(=O)n(O)c1=O` [Compound 4, 6-Benzyl-1-((4-fluorobenzyloxy)methyl)-3-hydroxy-5-isopropylpyrimidine-2,4(1H,3H)-dione], the “fold improvement in IN inhibition over the unsubstituted compound 11” value ([4]; ST, 4 vs 11) is listed as 6 fold, the IC50 [5] is listed as greater than 111 µM and the “TI (therapeutic index, CC50/EC50)” value (HIV-1IIIB [6]) is listed as greater than 833. The EC50 (HIV-1IIIB [6]; read-out: EC50 (concentration inhibiting virus replication by 50%), dose response) was 0.024 µM, the “CPE Reduction (%)” value (HIV-1IIIB [6]; single concentration 10 μM) was 100% and the “Cell Viability (%)” value (CEM-SS cells) was 100%. The “Fold-resistance IC50(mutant)/IC50(WT)” value (HIV IN mutant Y143R [7]) was 7 and 4 and the “Fold-resistance EC50(mutant)/EC50(WT)” value [8] was 5.9.

Molecule `CC(C)c1c(Cc2ccccc2)n(COCCCCc2ccc(F)cc2)c(=O)n(O)c1=O` [Compound 30, 6-Benzyl-1-((4-(4-fluorophenyl)butoxy)methyl)-3-hydroxy-5-isopropylpyrimidine-2,4(1H,3H)-dione] has an IC50 [1] greater than 111 µM.

With `O=c1c2ccccc2n(Cc2ccc(F)cc2)c(=O)n1O` [Compound 76] the IC50 [1] was greater than 111 µM, the IC50 [4] was greater than 111 µM and the “inhibitory activity against IN (in words)” value (“inhibitory activity” below) [4] was “completely inactive”.

In the case of `CCc1c(Cc2ccccc2)n(Cc2ccccc2)c(=O)n(O)c1=O` [Compound 67, 1,6-Bibenzyl-5-ethyl-3-hydroxypyrimidine-2,4(1H,3H)-dione], the IC50 [1] is reported as greater than 111 µM and the “inhibitory activity” value [4] is reported as “complete loss of inhibition”.

For `CC(C)c1c(Cc2ccccc2)n(COCc2ccccc2)c(=O)n(N)c1=O` [Compound 15, 3-Amino-6-benzyl-1-(benzyloxymethyl)-5-isopropylpyrimidine-2,4(1H,3H)-dione], the IC50 [5] is listed as greater than 111 µM and the “inhibitory activity” value [9] is listed as “completely devoid of inhibitory activity”.

In the case of `CC(C)c1c(Cc2ccccc2)n(Cc2ccccc2)c(=O)n(O)c1=O` [Compound 66, 1,6-Bibenzyl-3-hydroxy-5-isopropylpyrimidine-2,4(1H,3H)-dione], the IC50 [1] is reported as greater than 111 µM.

In the case of `CC(C)c1c(Cc2ccccc2)n(COCc2ccc(F)cc2)c(=O)n(C)c1=O` [Compound 10, 6-Benzyl-1-((4-fluorobenzyloxy)methyl)-5-isopropyl-3-methylpyrimidine-2,4(1H,3H)-dione], the IC50 [1] is reported as greater than 111 µM.

With `CC(C)c1c(Cc2ccccc2)n(CCCCc2ccc(F)cc2)c(=O)n(O)c1=O` [Compound 44, 6-Benzyl-1-(4-(4-fluorophenyl)butyl)-3-hydroxy-5-isopropylpyrimidine-2,4(1H,3H)-dione] the IC50 [1] was greater than 111 µM and the “activity against HIV-1 (in words)” value (HIV-1IIIB [3]) was “only marginal activity”.

With `CC(C)c1c(Cc2ccccc2)n(COCc2cccc(Cl)c2F)c(=O)n(O)c1=O` [Compound 13, 6-Benzyl-1-((3-chloro-2-fluorobenzyloxy)methyl)-3-hydroxy-5-isopropylpyrimidine-2,4(1H,3H)-dione] the IC50 [1] was greater than 111 µM, the viability at 6 days, 10 µM [2] was 100% and the “TC50 (toxicity observed)” value (MT-4 cells) was “c Toxicity observed (TC50 = 2.0 μM)”. For the same molecule, the “Fold-resistance IC50(mutant)/IC50(WT)” value (HIV IN mutant Y143R [10]) was 7 and the “TI (therapeutic index, CC50/EC50)” value (HIV-1IIIB [3]) was greater than 105.

In the case of `CC(C)c1c(Cc2ccccc2)n(COCc2ccccc2)c(=O)n(O)c1=O` [Compound 11, 6-Benzyl-1-(benzyloxymethyl)-3-hydroxy-5-isopropylpyrimidine-2,4(1H,3H)-dione], the IC50 [5] is given as greater than 111 µM.

For `Cc1nnc(C(=O)NC(C)(C)c2nc(C(=O)NCc3ccc(F)cc3)c(O)c(=O)n2C)o1` [Compound 1, raltegravir, reference compound], the “Fold-resistance IC50(mutant)/IC50(WT)” value (HIV IN mutant Y143R [10]) was 28.

`Cc1cn(COCc2ccccc2)c(=O)n(O)c1=O` [Compound 54, 1-(Benzyloxymethyl)-3-hydroxy-5-methylpyrimidine-2,4(1H,3H)-dione] gave an IC50 [1] greater than 111 µM.

In the case of `CC(C)c1c(Cc2ccccc2)n(COCc2ccc(F)cc2)c(=O)[nH]c1=O` [Compound 9, 6-Benzyl-1-((4-fluorobenzyloxy)methyl)-5-isopropylpyrimidine-2,4(1H,3H)-dione], the IC50 [1] is reported as greater than 111 µM.

`Cc1cn(Cc2ccc(F)cc2)c(=O)n(O)c1=O` [Compound 70, 1-(4-Fluorobenzyl)-3-hydroxy-5-methylpyrimidine-2,4(1H,3H)-dione] showed an IC50 [1] greater than 111 µM.

`CC(C)c1c(Cc2ccccc2)n(Cc2ccc(F)cc2)c(=O)n(O)c1=O` [Compound 32, 6-Benzyl-1-(4-fluorobenzyl)-3-hydroxy-5-isopropylpyrimidine-2,4(1H,3H)-dione] showed an IC50 [1] greater than 111 µM.

For `CC(C)c1c(Cc2ccccc2)n(CCCc2ccc(F)cc2)c(=O)n(O)c1=O` [Compound 43, 6-Benzyl-1-(3-(4-fluorophenyl)propyl)-3-hydroxy-5-isopropylpyrimidine-2,4(1H,3H)-dione], the IC50 [1] was greater than 111 µM and the “activity against HIV-1 (in words)” value (HIV-1IIIB [3]) was “only marginal activity”.

`COn1c(=O)c(C(C)C)c(Cc2ccccc2)n(COCc2ccc(F)cc2)c1=O` [Compound 14, 6-Benzyl-1-((4-fluorobenzyloxy)methyl)-5-isopropyl-3-methoxypyrimidine-2,4(1H,3H)-dione] showed an IC50 [1] greater than 111 µM.

With `CCc1c(Cc2ccccc2)c(=O)n(O)c(=O)n1COCc1ccccc1` [Compound 55, 5-Benzyl-1-(benzyloxymethyl)-6-ethyl-3-hydroxypyrimidine-2,4(1H,3H)-dione] the IC50 [1] was greater than 111 µM and the “fold increase of IC50 value on swapping C5 and C6 substituents” value ([4]; ST, 55 vs 53) was 4 fold.

Work on `CC(C)c1c(Cc2ccc(F)cc2)n(COCc2ccc(F)cc2)c(=O)n(O)c1=O` [Compound 52, 6-(4-Fluorobenzyl)-1-((4-fluorobenzyloxy)methyl)-3-hydroxy-5-isopropylpyrimidine-2,4(1H,3H)-dione] yielded an IC50 [1] greater than 111 µM.

For `O=c1c2ccccc2n(Cc2ccccc2)c(=O)n1O` [Compound 75], the IC50 [1] was greater than 111 µM, the IC50 [4] was greater than 111 µM and the “inhibitory activity” value [4] was “completely inactive”.

`CC(C)c1c(Cc2ccc(F)cc2)n(Cc2ccc(F)cc2)c(=O)n(O)c1=O` [Compound 65, 1,6-Bis(4-fluorobenzyl)-3-hydroxy-5-isopropylpyrimidine-2,4(1H,3H)-dione] showed an IC50 [1] greater than 111 µM.

Work on `Cc1cn(Cc2ccccc2)c(=O)n(O)c1=O` [Compound 69, 1-Benzyl-3-hydroxy-5-methylpyrimidine-2,4(1H,3H)-dione] yielded an IC50 [1] greater than 111 µM.

In the case of `CC(C)c1c(Cc2ccccc2)n(COCCCc2ccc(F)cc2)c(=O)n(O)c1=O` [Compound 29, 6-Benzyl-1-((3-(4-fluorophenyl)propoxy)methyl)-3-hydroxy-5-isopropylpyrimidine-2,4(1H,3H)-dione], the IC50 [1] is reported as greater than 111 µM.

In the case of `CCc1c(Cc2ccccc2)n(Cc2ccc(F)cc2)c(=O)n(O)c1=O` [Compound 68, 6-Benzyl-5-ethyl-1-(4-fluorobenzyl)-3-hydroxypyrimidine-2,4(1H,3H)-dione], the IC50 [1] is reported as greater than 111 µM.

For `CC(C)c1c(Cc2ccc(F)cc2)n(COCc2ccccc2)c(=O)n(O)c1=O` [Compound 51, 1-(Benzyloxymethyl)-6-(4-fluorobenzyl)-3-hydroxy-5-isopropylpyrimidine-2,4(1H,3H)-dione], the IC50 [1] was greater than 111 µM, the viability at 6 days, 10 µM [2] was 100% and the “TI (therapeutic index, CC50/EC50)” value (HIV-1IIIB [3]) was greater than 18.
